Data: patent US11981695B2, “Linoleic acid derivatives, pharmaceutical composition or food composition comprising said linoleic acid derivatives, and their uses” (UNIVERSITÉ DE BOURGOGNE, priority 2018, dated 2024)
“Also recorded” adds a separate entry of the source.

Assays:
[1] = test system: mouse taste bud cells; test: Ca2+ signaling (Fura-2/AM, F340/F380) in mouse taste bud cells; type: cell-based; conditions: for EC50: 0 to 200 μM, Δ ratio F340/F380, n=6, read-out: EC50 of dose-dependent increases in [Ca2+]i
Protocol: Briefly, lingual epithelium was separated by enzymatic dissociation which contained the following: elastase and dispase mixture, 2 mg/ml each, in Tyrode's buffer (120 mM NaCl; 5 mM KCl; 10 mM HEPES ((4-(2-hydroxyethyl)-1-piperazineethanesulfonic acid); 1 mM CaCl2; 1 mM MgCl2; 10 mM glucose; 10 mM Na pyruvate, pH 7.4). The taste bud cells were isolated by incubating lingual epithelium in RPMI 1640 medium containing 2 mM EDTA, 1.2 mg/ml elastase, 0.6 mg/ml collagenase (type 1), and 0.6 mg/ml trypsin inhibitor at 37° C. for 10 minutes, followed by centrifugation (600 g, 10 minutes). The cell populations, after separation, were suspended in fresh RPMI 1640 medium containing 10% fetal calf serum, 200 U/ml penicillin, and 0.2 mg/ml streptomycin, seeded onto a Poly-D-Lysine-coated dishes, and cultured for 24 hours. At the end of this period, the cells were used for the experiments or stained with trypan blue to assess their viability.
(§1) The mouse taste bud cells were seeded in 24-well plates (with glass bottom), containing poly-D-lysine for better adhesion to the surface. After 24 h, taste cells were incubated for 45 minutes with a fluorescent probe, Fura-2/AM (1 μM) in calcium buffer (110 mM NaCl, 5.4 mM, KCl, 25 mM, NaHCO3, 0.8 mM, MgCl2, 0.4 mM, KH2PO4, 20 mM, Hepes-Na, 0.33 mM, NaHPO4, 1.2 mM, CaCl2, pH 7.4). Then, the cells are washed with phosphate buffer saline (PBS) and taken up in calcium buffer.
(§2) The changes in intracellular Ca^2+ (F340/F380) were monitored under a Nikon microscope (TiU) by using an S Fluor 40× oil immersion objective.
(§3) Especially, the increases in [Ca^2+ ]i were measured as follows: the mice taste bud cells were cultured on Willico-Dish wells with a glass bottom and loaded with a fluorescent probe, Fura-2/AM. The changes in intracellular Ca^2+ (F340/F380) were monitored under the Nikon microscope (TiU) by using S-fluor 40× oil immersion objective. The planes were taken at Z intervals of 0.3 μm, and NIS-Elements software was used to deconvolve the images. The microscope was equipped with EM-CCD (Lucas) camera for real time recording of 16-bit digital images. The dual excitation fluorescence imaging system was used for studies of individual cells. The changes in intracellular Ca^2+ were expressed as ΔRatio, which was calculated as the difference between the peak F340/F380 ratio. The data were summarized from the large number of individual cells (20-40 cells in a single run, with 3-9 identical experiments done in at least three cell preparations). The results were analyzed with the NIS-elements software, the variation in [Ca^2+]i is expressed as Δ ratio (F340/F380 which was calculated with the difference of spectra at two wavelengths, i.e., 340 nm and 380 nm.

[2] = molecular target: T1, CD36 (Mus musculus, UniProt Q08857); test: Ca2+ signaling in mouse taste bud cells in presence or absence of CD36 inhibitor SSO; type: cell-based; conditions: for action of CD36 inhibitor SSO on the increase in [Ca2+]i: 20 μM SSO, mouse taste bud cells; for CD36 agonist character: judged from suppression by SSO
T1 construct: freshly isolated and primary cultured mice type II taste bud cells (expressing GPR120 and CD36) are used; endogenous in cells; host or cells: primary mouse taste bud cells from fungiform papillae
T1 sequence (Q08857 whole entry): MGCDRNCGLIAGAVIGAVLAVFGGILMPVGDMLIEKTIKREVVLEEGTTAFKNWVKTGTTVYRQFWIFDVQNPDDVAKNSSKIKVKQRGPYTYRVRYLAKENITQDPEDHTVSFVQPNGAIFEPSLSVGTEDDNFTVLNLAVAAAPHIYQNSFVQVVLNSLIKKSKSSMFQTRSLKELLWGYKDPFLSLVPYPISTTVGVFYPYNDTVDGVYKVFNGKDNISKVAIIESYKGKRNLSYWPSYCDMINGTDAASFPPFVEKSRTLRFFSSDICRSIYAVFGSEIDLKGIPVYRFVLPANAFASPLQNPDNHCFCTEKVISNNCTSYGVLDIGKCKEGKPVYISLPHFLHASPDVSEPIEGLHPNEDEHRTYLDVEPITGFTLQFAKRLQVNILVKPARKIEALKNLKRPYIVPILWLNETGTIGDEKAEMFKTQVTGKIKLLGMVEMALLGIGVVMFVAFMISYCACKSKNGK
Protocol: as §1, §2, §3
CD36: in order to assess if the linoleic acid derivatives according to the invention exert their actions via CD36, sulfo-N-succinimidyl oleate (SSO) was used. SSO is a CD36 inhibitor/blocker/antagonist.
Experiments were performed in the presence or absence of SSO with respect to calcium signaling to verify whether our analogs act well via this lipid receptor. Especially, for this assay, NKS-3, NKS-5 and linoleic acid (control) were tested.

[3] = test system: mice (C57Bl/6 black); test: Two-bottle preference test; type: in vivo, mouse; conditions: for preference versus control solution (xanthan gum) / effect on palatability of a sucrose-containing solution / preferred (optimal) concentration in two-bottle preference test: 12 h; for preference versus control solution (xanthan gum): 0.3% xanthan gum, test compound 10 to 200 μM or linoleic acid 0.2% (v/v); for ratio of LA preferred concentration to that of test compound: LA preferred at 7.13 mM or 0.2%; for effect on palatability of a sucrose-containing solution: sucrose versus sucrose plus test compound 50 μM; for preferred (optimal) concentration in two-bottle preference test: versus xanthan gum
Protocol: Eight weeks old, male mice (C57Bl/6 black) were purchased from the Janvier Elevage (Le Mans) and used for these experiments.
The mice are placed individually in cages in a controlled environment (humidity and constant temperature) and have free access to a standard diet. 6 hours before the tests, the mice are deprived of water.
During the behavioral experiments, the mice were offered two bottles simultaneously for 12 hours (night period).
The mice are subjected to a choice between the “control” solution and the experimental solution.
Experiment 1 (FIG. 5, FIG. 6A, FIG. 7) • control solutions contain 0.3% xanthan gum, w/v, (Sigma Life Science, USA) in water to reproduce lipid texture and minimize bias due to differences in appearance between the two bottles; • the experimental solution contains, in addition to xanthan gum, 0.3% (w/v), either the “test compound” according to the invention at a concentration varying from 10 to 200 μM (NKS-3, FIG. 6A or NKS-5, FIG. 7) or linoleic acid at 0.2% (v/v) (control test, FIG. 5). To avoid the preference for one side, the position of each bottle is changed during each test.
Experiment 2 (FIG. 6B and FIG. 8): gustatory properties • control solutions contain 2% of sucrose (w/v); • the experimental solution contains, in addition to sucrose (2% w/v), the “test compound” according to the invention (NKS-3, FIG. 6B or NKS-5, FIG. 8) at a concentration of 50 μM.
To estimate the consumption of control and experimental solutions, the bottles are weighed before and after each experiment. The mice are allowed to take rest for 48 hours between each experiment.

[4] = test system: obese C57BL/6J mice; test: Blood biochemical parameters in diet-induced obese mice (ELISA, automatic analyzer); type: in vivo, mouse; conditions: obese animals
Protocol: (§4) C57BL/6J male mice, aged between 6 to 10 weeks (16-20 g), were obtained from Janvier Labs (France). They were housed individually in a controlled environment with a 12 h light/dark cycle with food (SAFE, France) and water ad libitum. The palm oil (Huilerie Vigean, France) was the main fat component in high-fat diets. The high-fat diet was prepared weekly and stored at 4° C. until further use. The study was conducted as per Declaration of Helsinki and European ethical guidelines for the care and use of animals for experimentation. All the experimental protocols (protocol number: 16158) were approved by the Regional Ethical Committee of the University of Burgundy (Dijon, France).
(§5) The mice were grouped at random (n=10/group) and fed with either of the following diets: standard diet (STD) or high-fat diet (HFD). The body weight, food, and water intake were measured, weekly.
(§6) After 10 weeks of feeding the diets, obese animals were divided into two groups: one groups continued to be fed on the same HFD; however, another group was fed on the same diet and received either NKS-3 or NKS-5) until 28th of weeks of experimentation. At the end, the animals were sacrificed, under a fasting condition, and used for different analysis in blood and different tissues.
The rat/mouse insulin ELISA kit was obtained from EMD Millipore (USA). ELISA kits for CCK, PYY and GLP-1 were purchased from Cloud-Clone Corp. (USA). The ALAT (Alanine Amino Transferase) was determined by an automatic analyzer (Gilford Model 2000 system, a Beckman System T.R).

[5] = test system: C57BL/6J mice; test: Liver histology in normal diet or HFD fed mice; type: in vivo, mouse; conditions: for liver steatosis in liver sections of obese mice: HFD
Protocol: as §4, §5, §6
The liver of the mice at the time of sacrifice were fixed in formaldehyde and then dehydrated by passaging into ethanoic media. The liver tissues were embedded into the paraffin and 5μ thick section were cut by the microtome as per standard procedures. The slides, containing tissues, were stained by hematoxylin and eosin dyes as per standard methods. The stained slides were observed under Zeiss light microscope at 10× or 20× magnifications.

[6] = test system: obese C57BL/6J mice; test: Diet-induced obesity, body weight; type: in vivo, mouse; conditions: for body weight in obese mice: HFD, analogues in feeder bottles from 10th to 28th week, NKS-5 75 μM, NKS-3 50 μM; for body weight of control animals: normal diet
Protocol: as §4, §5, §6
In order to elucidate the beneficial effects and especially during obesity, experiments were conducted on obese C57BL/6J mice. […] In order to test the curative/interventional effects on obesity, the animals were divided into two groups: one group that consume only the high-fat diet (HFD) and the other consuming the same diet and also receiving NKS-3 or NKS-5 in adlibitum baby bottles/feeders. From the 10th week of the diet, lipid analogues were introduced into the bottles at concentrations that corresponded to their preference in the double choice test (NKS-5 at 75 μM; NKS-3 at 50 μM). […] In addition, the decrease in obesity was maintained until the 28th week of feeding a HFD (FIGS. 13A and 13B).

[7] = molecular target: T2, GPR120 (Mus musculus, UniProt Q7TMA4); test: Ca2+ signaling in mouse taste bud cells in presence or absence of GPR120 antagonist AH7614; type: cell-based; conditions: AH7614 20 μM, NKS-5 50 μM
T2 construct: freshly isolated and primary cultured mice type II taste bud cells (expressing GPR120 and CD36) are used; endogenous in cells; host or cells: primary mouse taste bud cells from fungiform papillae
T2 sequence (Q7TMA4 1-361): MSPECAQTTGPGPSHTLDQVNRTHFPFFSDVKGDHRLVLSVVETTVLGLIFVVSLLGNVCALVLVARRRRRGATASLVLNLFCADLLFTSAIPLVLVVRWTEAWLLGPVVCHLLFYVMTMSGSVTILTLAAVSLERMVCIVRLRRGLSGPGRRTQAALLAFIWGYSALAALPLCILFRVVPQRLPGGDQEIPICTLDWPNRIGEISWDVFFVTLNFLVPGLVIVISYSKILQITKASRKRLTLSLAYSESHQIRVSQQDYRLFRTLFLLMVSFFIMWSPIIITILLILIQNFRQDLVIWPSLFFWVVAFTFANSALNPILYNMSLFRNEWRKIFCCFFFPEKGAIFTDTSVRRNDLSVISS
Protocol: as §1, §2
as §3, with “The planes were taken at Z intervals of 0.3 μm, and NIS-Elements software was used to deconvolve the images. The microscope was equipped with EM-CCD (Lucas) camera for real time recording of 16-bit digital images.” left out, “The data were summarized from the large number of individual cells (20-40 cells in a single run, with 3-9 identical experiments done in at least three cell preparations).” left out, “nm. […]” for “nm.”

Row | SMILES | increase in [Ca2+]i [1] | action of CD36 inhibitor SSO on the increase in [Ca2+]i ([2]; listed as LA) | preference versus control solution (xanthan gum) ([3]; mice) | concentration preferred in two-bottle preference test ([3]; mice, 7.13 mM or 0.2%) | EC50 [1] | blood concentration of ALAT [4] | circulating concentrations of IL-6 [4] | insulin concentrations [4] | liver steatosis in liver sections of obese mice [5] | liver histology, normal diet fed mice [5] | action of CD36 inhibitor SSO on the increase in [Ca2+]i [2] | CD36 agonist character [2] | body weight in obese mice [6] | body weight of control animals [6] | ratio of LA preferred concentration to that of test compound [3] | effect on palatability of a sucrose-containing solution ([3]; mice) | preferred (optimal) concentration in two-bottle preference test ([3]; mice) | effect of GPR120 inhibitor AH7614 on the increase in [Ca2+]i [7]
1 | CCCCC/C=C\C/C=C\CCCCCCCC(=O)O [Linoleic acid, linoleic acid] | huge increase | completely blocked; also recorded: suppressed | strong preference | 7.13 mM | – | – | – | – | – | – | – | – | – | – | – | – | – | –
2 | CCCCC/C=C\C/C=C\CCCCCCCCP(=O)(OCC)OCC [NKS-3, diethyl (9Z,12Z)-octadeca-9,12-dien-1-ylphosphonate] | very rapid | – | spontaneous preference | – | 25 ± 0.01 µM | decreased | decrease | decreases | curative effects | did not exert any effect | completely blocked; also recorded: completely suppressed | complete CD36 agonist | significant decrease in body weight | no effect | 140 times | failed to enhance the palatability | 50 µM | –
3 | CCCCC/C=C\C/C=C\CCCCCCCC(=O)OCC1(C)COC1 [NKS-5, (9Z,12Z)-(3-methyloxetan-3-yl)methyl octadeca-9,12-dienoate] | very rapid | – | spontaneous preference | – | 30 ± 0.01 µM | decreased | decrease | decreases | curative effects | did not exert any effect | partially inhibited; also recorded: curtailed, but not completely suppressed | partial agonist | significant decrease in body weight | no effect | 93 times | increases the palatability | 75 µM | significantly curtailed, but not suppressed
